Assay results from article PMC6721120, “Inhibitory Effects of Ginsenoside Ro on the Growth of B16F10 Melanoma via Its Metabolites” (Molecules, 2019).
Converted amounts (≈) assume the structure as drawn. Where two headings read alike, the source gives them in different places.

Tests used:
[1] = Description: (§1) An anti-tumour assay was conducted in a mouse xenograft model. B16F10 cells were cultured in DMEM containing 10% FBS. After the collection of cells, the cells were re-suspended in normal saline to the appropriate concentrations. Next, 0.1 mL of the B16F10 cell suspension (1 × 10^6 cells) was subcutaneously injected via the right axillary region of the C57BL/6J mice. The tumour-bearing mice were randomly divided into three groups (n = 6/group): model control group, positive control group, and Ro (25 mg/kg) administration group. […] Normal and model mice were administered normal saline. The mice in the positive control group received CTX (20 mg/kg). The successive intraperitoneal injection of drugs into the mice from the day after tumour inoculation and the body weights were monitored every 2 days. After 15 days, all mice were sacrificed, and tumours were taken out and measured as previously described. The thymus and spleen were also removed and weighed to calculate the thymus and spleen indices. The tumour inhibition rate was calculated. The blood samples were collected from the retrobulbar vessels and added into tubes containing heparin. Subsequently, plasma samples were prepared by centrifugation for 10 min at 3800 rpm and stored at −80 °C for HPLC-MS analysis.
[2] = tested on: B16F10 melanoma tumour; assay: Tumour xenograft experiment in B16F10 tumour-bearing mice; format: in vivo, C57BL/6J mice; conditions: 15 days; for tumour growth (tumour volume): R1 25, IVa 25, E 5, CTX 20 mg/kg intraperitoneal, vs model group, p < 0.05; for mean tumour weight: model group 1.50 g
Description: as §1
A xenograft experiment was performed using the same method as described in Section 2.2. Briefly, after the mice were inoculated with tumour cells, they were randomly divided into […] (n = 6/group): model control group, positive control group (CTX, 20 mg/kg), R1 (25 mg/kg), IVa (25 mg/kg), and E (5 mg/kg) administration groups. […] Normal and model mice were administered normal saline. Drugs were intraperitoneally injected into the mice for 15 consecutive days. Tumour volumes were measured every 2 days, and tumour growth curves were plotted. At the end of the experiment, the mice were sacrificed, and the tumour weight and tumour growth inhibition rates were calculated.

[3] = tested on: B16F10 melanoma cells; assay: MTT cell viability assay; format: cell-based; conditions: 24 h; for IC50: Mus musculus, B16-F10, MTT, read-out: half maximal inhibitory concentration (IC50)
Description: In this study, Ro was dissolved in dimethyl sulfoxide (DMSO) and diluted in DMEM and then filtered using a 0.22 μm membrane. The final concentration of DMSO in cell culture medium was 0.1%, and 0.1% DMSO-treated cells were used as controls. The effect of Ro on B16F10 cell growth in vitro was performed using the MTT assay. Briefly, exponentially growing B16F10 (1 × 10^4 cells/well) cells were seeded onto 96-well plates and incubated for 24 h in complete medium. After 24 h incubation, the cells were treated with various concentrations of Ro (0, 1, 3, 10, 30, 100 μg/mL) for 24 h, and MTT (0.5%, 20 μL) was then added to each well and incubated for an additional 4 h at 37 °C. The formazan crystals were dissolved in DMSO (150 μL), and the absorbance at 490 nm was measured using a microplate reader (BioTek Epoch; BioTek, Winooski, VT, USA)
The metabolites (standard substance) of Ro were dissolved in the same manner as Ro. Briefly, IVa, R1, and E were dissolved in dimethyl sulfoxide (DMSO), diluted in DMEM, and then filtered using a 0.22 μm membrane. The final concentration of DMSO in cell culture medium was 0.1%, and 0.1% DMSO-treated cells were used as controls. The effects of IVa, R1, and E on B16F10 cell growth were evaluated using the MTT assay as previously described. The cells were treated with various concentrations of IVa (0, 1, 3, 10, 30, 100 μg/mL), R1 (0, 5, 10, 20, 30, 40 μg/mL), and E (0, 2, 4, 6 μg/mL) for 24 h. After incubation, MTT (0.5%, 20 μL) was added and incubated for 4 h at 37 °C. Then the supernatants were carefully removed, and 150 μL DMSO was added to each well. After 10 min of incubation and vibration, the absorbance was read at a wavelength of 490 nm. IC50 values were calculated using Probit Analysis with SPSS 22.0 (SPSS Inc., Chicago, IL, USA).

[4] = tested on: human umbilical vein endothelial cells (HUVECs); assay: Tube formation assay on Matrigel; format: cell-based
Description: The tube formation assay was performed as previously described with some modifications. Matrigel (BD Biosciences, San Jose, CA, USA) was thawed overnight at 4 °C. Next, 50 μL Matrigel was coated on each well of the pre-chilled 96-well plates and then incubated at 37 °C for 1 h. HUVECs (5 × 10^4 cells/well) were seeded on the Matrigel and treated with various concentrations of Ro (0, 1, 3, 10, 30, 100 μg/mL), R1 (0, 5, 10, 20, 30, 40 μg/mL), IVa (0, 1, 3, 10, 30, 100 μg/mL), and E (0, 2, 4, 6, 8, 10 μg/mL). After incubation for 5 h, the formation of HUVEC tubular structures was captured using a microscope (Nikon eclipse Ti; Nikon, Tokyo, Japan). The tube length was quantified using Image-Pro Plus 6.0 software.

[5] = HPLC-MS determination of Ro metabolites in plasma of tumour-bearing mice; format: in vivo, C57BL/6J mice; conditions: plasma after 15 days Ro 25 mg/kg intraperitoneal; for detection in plasma of Ro-treated tumour-bearing mice: HPLC-MS
Description: B16F10 cells were cultured in DMEM containing 10% FBS. […] Normal and model mice were administered normal saline. […] The tumour inhibition rate was calculated.
Identification of the metabolites of Ro was done using the same HPLC Trap MS system as previously described. Briefly, an aliquot of 60 μL plasma samples was removed from the −80 °C storage and thawed under ambient temperature and mixed vigorously with 300 μL cold methanol. The supernatant was placed in a centrifuge tube (1500 μL) after 10 min of centrifugation at 10,000 rpm. The precipitate was washed three times using 100 μL cold methanol. All of the supernatants were combined and dried under nitrogen flow at ambient temperature. The residue was dissolved using 80 μL methanol (3 min of vortexing), and the solution was diluted in 240 μL pure water. The mixture was centrifuged at 10,000 rpm for 10 min. All of the supernatant was loaded onto a flash column (25 × 2 mm id, Chromolith; Merck, Darmstadt, Germany). This flash column was connected to an analytical column (50 × 2 mm id, Chromolith; Merck) for HPLC-MS analysis. The separation was conducted using a gradient mobile phase consisting of water (A, containing 0.01% ammonium hydroxide) and acetonitrile (B). The program of the mobile phase was as follows: 10% B for the first 5 min; then a linear gradient of 10–15% B for 5–7 min, 15–40% B for 7–40 min, and 40–70% B for 40–45 min; this composition was maintained for 45–60 min and then returned to the initial condition for 5 min. The flow rate was 0.2 mL/min. The method for the Trap MS detection was the same as previously described.

[6] = tested on: erythrocytes; assay: Haemolysis test; format: cell-based, Sprague Dawley rats; conditions: all concentrations up to 100 μg/mL
Description: (§2) To evaluate the haemocompatibility of Ro, the haemolysis test was performed as previously described. Arterial blood was obtained from healthy Sprague Dawley rats. Then erythrocytes were separated from the plasma and lymphocytes by centrifugation (3000 rpm, 5 min) at 4 °C, washed three times with normal saline, and suspended in normal physiological saline at a haematocrit of 2%. Erythrocytes were used immediately after isolation. Next, 2.5 mL erythrocyte suspension and 2.5 mL medicated saline solution were added to a 10 mL centrifuge tube. The final concentrations of Ro were 1, 3, 10, 30, and 100 μg/mL. The negative and positive controls were normal physiological saline and 0.2% Triton X-100, respectively. The samples were incubated for a specific time period at 37 °C for 60 min. Next, the tube was centrifuged at 3000 rpm for 5 min. Finally, the optical density (OD) was obtained at a wavelength of 545 nm. Three parallel samples were laid in each group. The mean value of the three samples was obtained as the group OD value. The HR was expressed as the percentage and calculated according to the equation:HR = (ODt − ODn)/(ODp − ODn) × 100%,(1) where ODt indicates the OD value of the tested group, and ODn and ODp are the OD values of the negative and positive control groups, respectively. A haemolysis rate less than 5% is regarded as a nontoxic effect level.

[7] = Haemolysis test; format: cell-based, Sprague Dawley rats; conditions: Sprague-Dawley, rat, isolated erythrocytes (2% haematocrit suspension), 37 °C, 60 min, read-out: Haemolysis Rate (%)
Description: as §2

[8] = after 15 days intraperitoneal, CTX 20 mg/kg, Ro 25 mg/kg
[9] = 5 h incubation, IVa 1–100, R1 5–40, E 2–10 μg/mL

O=P1(N(CCCl)CCCl)NCCCO1 (centres unmarked) [CTX, cyclophosphamide, reference compound]
Organ Indices Spleen [1, 8]: 2.98 ± 0.86 ×100, mg/g | Organ Indices Thymus [1, 8]: 0.56 ± 0.09 ×100, mg/g | Weight (g) After ([1]; body weight after 15 days intraperitoneal, CTX 20 mg/kg, Ro 25 mg/kg): 22.27 ± 1.02 g | Weight (g) Before ([1]; body weight before treatment, CTX 20 mg/kg, Ro 25 mg/kg): 22.29 ± 0.85 g | tumour growth (tumour volume) [2]: significantly suppressed tumour growth

CC1(C)CC[C@]2(C(=O)O)CC[C@]3(C)C(=CC[C@@H]4[C@@]5(C)CC[C@H](O[C@@H]6O[C@H](C(=O)O)[C@@H](O)[C@H](O)[C@H]6O)C(C)(C)[C@@H]5CC[C@]43C)[C@@H]2C1 [E, calenduloside E]
tumour inhibition rate ([2]; 5 mg/kg intraperitoneal): 85.4% | mean tumour weight ([2]; 5 mg/kg intraperitoneal): 0.22 g | tumour growth (tumour volume) [2]: significantly suppressed tumour growth | IC50 [3]: 2.58 µg/mL (≈ 4.08 µM) | HUVEC tube formation [4, 9]: markedly inhibited

CC1(C)CC[C@]2(C(=O)O[C@@H]3O[C@H](CO)[C@@H](O)[C@H](O)[C@H]3O)CC[C@]3(C)C(=CC[C@@H]4[C@@]5(C)CC[C@H](O[C@@H]6O[C@H](C(=O)O)[C@@H](O)[C@H](O)[C@H]6O)C(C)(C)[C@@H]5CC[C@]43C)[C@@H]2C1 [IVa, chikusetsusaponin IVa]
tumour inhibition rate ([2]; 25 mg/kg intraperitoneal): 64.7% | mean tumour weight ([2]; 25 mg/kg intraperitoneal): 0.53 g | tumour growth (tumour volume) [2]: significantly suppressed tumour growth | viability ([3]; 100 µg/mL): slightly decreased | cytotoxic effects ([3]; 1–30 µg/mL): no cytotoxic effects | HUVEC tube formation [4, 9]: markedly inhibited

CC1(C)CC[C@]2(C(=O)O)CC[C@]3(C)C(=CC[C@@H]4[C@@]5(C)CC[C@H](O)C(C)(C)[C@@H]5CC[C@]43C)[C@@H]2C1 [OA, oleanolic acid, reference compound]
detection in plasma of Ro-treated tumour-bearing mice [5]: not detected

CC1(C)CC[C@]2(C(=O)O)CC[C@]3(C)C(=CC[C@@H]4[C@@]5(C)CC[C@H](O[C@@H]6O[C@H](C(=O)O)[C@@H](O)[C@H](O)[C@H]6O[C@@H]6O[C@H](CO)[C@@H](O)[C@H](O)[C@H]6O)C(C)(C)[C@@H]5CC[C@]43C)[C@@H]2C1 [R1, zingibroside R1]
tumour inhibition rate ([2]; 25 mg/kg intraperitoneal): 46.6% | mean tumour weight ([2]; 25 mg/kg intraperitoneal): 0.80 g | tumour growth (tumour volume) [2]: significantly suppressed tumour growth | IC50 [3]: 24.5 µg/mL (≈ 30.8 µM) | plasma signal intensity of R1 relative to E [5]: ~100 fold | plasma signal intensity of R1 relative to IVa [5]: ~10 fold | plasma signal intensity of R1 relative to Ro [5]: approximately two-fold | detection in plasma of Ro-treated tumour-bearing mice [5]: most abundant metabolite in the plasma | HUVEC tube formation [4, 9]: markedly inhibited

CC1(C)CC[C@]2(C(=O)O[C@@H]3O[C@H](CO)[C@@H](O)[C@H](O)[C@H]3O)CC[C@]3(C)C(=CC[C@@H]4[C@@]5(C)CC[C@H](O[C@@H]6O[C@H](C(=O)O)[C@@H](O)[C@H](O)[C@H]6O[C@@H]6O[C@H](CO)[C@@H](O)[C@H](O)[C@H]6O)C(C)(C)[C@@H]5CC[C@]43C)[C@@H]2C1 [Ro, ginsenoside Ro]
Organ Indices Spleen ([1]; mouse, in vivo): 3.54 ± 1.03 ×100, mg/g | Organ Indices Thymus ([1]; mouse, in vivo): 1.67 ± 0.25 ×100, mg/g | Weight (g) After ([1]; mouse, in vivo): 24.73 ± 1.43 g | Weight (g) Before ([1]; mouse, in vivo): 22.91 ± 1.12 g | tumour inhibition rate ([2]; 25 mg/kg intraperitoneal): 75.7% | effect on B16F10 cell growth in vitro ([3]; 0, 1, 3, 10, 30, 100 μg/mL): little effect | HUVEC tube formation ([4]; 100 μg/mL, 5 h): stimulated tube formation | HUVEC tube formation ([4]; 1–30 μg/mL, 5 h): no effects | haemolysis ratio (HR%) [6]: less than 5% | hemolysis at 60 min, 1 μg/mL ([7]; 1 μg/mL): 0.15 ± 0.13% | hemolysis at 60 min, 3 μg/mL ([7]; 3 μg/mL): 0.31 ± 0.13% | hemolysis at 60 min, 10 μg/mL ([7]; 10 μg/mL): 0.23 ± 0.23% | hemolysis at 60 min, 30 μg/mL ([7]; 30 μg/mL): 0.15 ± 0.13% | hemolysis at 60 min, 100 μg/mL ([7]; 100 μg/mL): 0.31 ± 0.35%

Glycosyl oleanolate
detection in plasma of Ro-treated tumour-bearing mice [5]: not detected
